Bridge positions count the residues as written; N and C are the ends. Square brackets hold non-standard residues; d marks the D form. Peptide text beside a SMILES is read from it. Hyp = O=C(O)[C@@H]1C[C@@H](O)CN1; Cit = NC(=O)NCCC[C@H](N)C(=O)O
Key:
hAMY3 receptor = molecular target: T1, hAMY3 receptor (Homo sapiens, UniProt O60896+P30988); assay: cAMP assay for in vitro receptor activation, hAMY3-R; type: cell-based; conditions: cAMP assay, hAMY3 receptor; read-out: hAMY3R EC50
T1 sequence (P30988 25-474): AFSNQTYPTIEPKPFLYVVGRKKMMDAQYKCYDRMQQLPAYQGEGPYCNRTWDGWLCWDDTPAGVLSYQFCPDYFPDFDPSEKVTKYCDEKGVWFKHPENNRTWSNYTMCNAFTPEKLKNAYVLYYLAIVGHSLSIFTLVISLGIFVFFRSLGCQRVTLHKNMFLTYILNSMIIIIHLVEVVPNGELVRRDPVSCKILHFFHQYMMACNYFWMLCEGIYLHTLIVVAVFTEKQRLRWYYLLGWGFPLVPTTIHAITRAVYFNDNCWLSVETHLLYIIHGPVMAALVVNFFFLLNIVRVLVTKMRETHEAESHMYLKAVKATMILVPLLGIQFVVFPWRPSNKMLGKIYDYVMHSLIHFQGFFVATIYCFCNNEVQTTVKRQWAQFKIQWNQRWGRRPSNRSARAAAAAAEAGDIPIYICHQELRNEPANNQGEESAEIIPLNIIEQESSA
T1 sequence (O60896 24-148 partner): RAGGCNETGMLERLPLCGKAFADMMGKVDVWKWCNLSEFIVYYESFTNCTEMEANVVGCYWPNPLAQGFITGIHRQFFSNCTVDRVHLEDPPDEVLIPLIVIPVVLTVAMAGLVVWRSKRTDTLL
Procedure, shortened: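 Read-out is TR-FRET cAMP signal, recorded one hour after reagent addition, following 30 min room-temperature stimulation of stable hAMY3 cells with graded compound doses in casein/IBMX (0.5 mM) buffer.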

[1] = Physical stability of peptide analogues (Thioflavin T fibrillation); type: physicochemical; conditions: maximum ThT signal normalized between hAMY maximum and buffer background; 40° C., shaking, four days; pH 7 per table title
Procedure, shortened: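 Maximum ThT emission at 480 nm, after LOESS smoothing, is given as percent of the span from buffer background to hAMY. Conditions: 50 mM buffer at pH 4 or 7, 4 μM dye, 40 °C, repeated shaking, readings every 10 min for four days.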

| Compound | EC50 (hAMY3 receptor) [nM] | Max ThT signal (%) [1] [%] |
| --- | --- | --- |
| CC[C@H](C)[C@H](NC(=O)[C@H](CCC(N)=O)NC(=O)[C@H](Cc1c[nH]cn1)NC(=O)[C@H](C)NC(=O)[C@H](CC(C)C)NC(=O)[C@H](CCCNC(=N)N)NC(=O)[C@H](CCC(N)=O)NC(=O)[C@@H](NC(=O)[C@@H](NC(=O)[C@@H]1CSSC[C@H](NC(=O)CN)C(=O)N[C@@H](CCCNC(=N)N)C(=O)N[C@@H](Cc2ccccc2)C(=O)NCC(=O)N[C@@H]([C@@H](C)O)C(=O)N1)[C@@H](C)O)C(C)C)C(=O)N[C@@H](Cc1ccc(O)cc1)C(=O)N[C@@H](CCC(N)=O)C(=O)N[C@@H](Cc1ccccc1)C(=O)N[C@H](C(=O)N[C@@H](CC(=O)O)C(=O)N[C@@H](CCCCN)C(=O)N[C@@H](CC(=O)O)C(=O)N[C@@H](CCCCN)C(=O)N[C@@H](CC(=O)O)C(=O)N[C@@H](CC(N)=O)C(=O)N[C@H](C(=O)N[C@@H](C)C(=O)N1CCC[C@H]1C(=O)N[C@@H](CCCNC(=N)N)C(=O)N[C@H](C(=O)N[C@@H](CCCCN)C(=O)N[C@H](C(=O)N[C@@H](CO)C(=O)N1CCC[C@H]1C(=O)N[C@@H](CCC(N)=O)C(=O)NCC(=O)N1C[C@H](O)C[C@H]1C(N)=O)C(C)C)[C@@H](C)O)C(C)C)[C@@H](C)O [compound 132] (H-GCRFGTCTVQRLAHQIYQFTDKDKDNVAPRTKVSPQG[Hyp]-NH2; disulfide 2-7; N-terminus assumed) | 0.031 | 5.200 |
| CC[C@H](C)[C@H](NC(=O)[C@H](CCC(N)=O)NC(=O)[C@H](Cc1c[nH]cn1)NC(=O)[C@H](C)NC(=O)[C@H](CC(C)C)NC(=O)[C@H](CCCNC(N)=O)NC(=O)[C@H](CCC(N)=O)NC(=O)[C@@H](NC(=O)[C@@H](NC(=O)[C@@H]1CSSC[C@H](NC(=O)CN)C(=O)N[C@@H](CCCNC(=N)N)C(=O)N[C@@H](Cc2ccccc2)C(=O)NCC(=O)N[C@@H]([C@@H](C)O)C(=O)N1)[C@@H](C)O)C(C)C)C(=O)N[C@@H](Cc1ccc(O)cc1)C(=O)N[C@@H](CCC(N)=O)C(=O)N[C@@H](Cc1ccccc1)C(=O)N[C@H](C(=O)N[C@@H](CC(=O)O)C(=O)N[C@@H](CCCCN)C(=O)N[C@@H](CC(=O)O)C(=O)N[C@@H](CCCCN)C(=O)N[C@@H](CC(=O)O)C(=O)N[C@@H](CC(N)=O)C(=O)N[C@H](C(=O)N[C@@H](C)C(=O)N1CCC[C@H]1C(=O)N[C@@H](CCCNC(=N)N)C(=O)N[C@H](C(=O)N[C@@H](CC(N)=O)C(=O)N[C@H](C(=O)NCC(=O)N1CCC[C@H]1C(=O)N[C@@H](CC(N)=O)C(=O)NCC(=O)N1C[C@H](O)C[C@H]1C(N)=O)C(C)C)[C@@H](C)O)C(C)C)[C@@H](C)O [compound 270] (H-GCRFGTCTVQ[Cit]LAHQIYQFTDKDKDNVAPRTNVGPNG[Hyp]-NH2; disulfide 2-7; N-terminus assumed) | 0.003 | 25.450 |
| CC[C@H](C)[C@H](NC(=O)[C@H](CCC(N)=O)NC(=O)[C@H](Cc1c[nH]cn1)NC(=O)[C@H](C)NC(=O)[C@H](CC(C)C)NC(=O)[C@H](CCCNC(N)=O)NC(=O)[C@H](CCC(N)=O)NC(=O)[C@@H](NC(=O)[C@@H](NC(=O)[C@@H]1CSSC[C@H](NC(=O)CN)C(=O)N[C@@H](CCCNC(=N)N)C(=O)N[C@@H](Cc2ccccc2)C(=O)NCC(=O)N[C@@H]([C@@H](C)O)C(=O)N1)[C@@H](C)O)C(C)C)C(=O)N[C@@H](Cc1ccc(O)cc1)C(=O)N[C@@H](CCC(N)=O)C(=O)N[C@@H](Cc1ccccc1)C(=O)N[C@H](C(=O)N[C@@H](CC(=O)O)C(=O)N[C@@H](CCCCN)C(=O)N[C@@H](CC(=O)O)C(=O)N[C@@H](CCCCN)C(=O)N[C@@H](CC(=O)O)C(=O)N[C@@H](CC(N)=O)C(=O)N[C@H](C(=O)N[C@@H](C)C(=O)N1CCC[C@H]1C(=O)N[C@@H](CCCNC(=N)N)C(=O)N[C@@H](CO)C(=O)N[C@@H](CC(N)=O)C(=O)N[C@H](C(=O)N[C@@H](CO)C(=O)N1CCC[C@H]1C(=O)N[C@@H](CCC(N)=O)C(=O)NCC(=O)N[C@@H](Cc1ccc(O)cc1)C(N)=O)C(C)C)C(C)C)[C@@H](C)O [compound 286] (H-GCRFGTCTVQ[Cit]LAHQIYQFTDKDKDNVAPRSNVSPQGY-NH2; disulfide 2-7; N-terminus assumed) | 0.025 | 2.900 |
| CC[C@H](C)[C@H](NC(=O)[C@H](CCC(N)=O)NC(=O)[C@H](Cc1c[nH]cn1)NC(=O)[C@H](C)NC(=O)[C@H](CC(C)C)NC(=O)[C@H](CCCNC(=N)N)NC(=O)[C@H](CCC(N)=O)NC(=O)[C@@H](NC(=O)[C@@H](NC(=O)[C@@H]1CSSC[C@H](NC(=O)CN)C(=O)N[C@@H](CCCNC(=N)N)C(=O)N[C@@H](Cc2ccccc2)C(=O)NCC(=O)N[C@@H]([C@@H](C)O)C(=O)N1)[C@@H](C)O)C(C)C)C(=O)N[C@@H](Cc1ccc(O)cc1)C(=O)N[C@@H](CCC(N)=O)C(=O)N[C@@H](Cc1ccccc1)C(=O)N[C@H](C(=O)N[C@@H](CC(=O)O)C(=O)N[C@@H](CCCCN)C(=O)N[C@@H](CC(=O)O)C(=O)N[C@@H](CCCCN)C(=O)N[C@@H](CC(=O)O)C(=O)N[C@@H](CC(N)=O)C(=O)N[C@H](C(=O)N[C@@H](C)C(=O)N1CCC[C@H]1C(=O)N[C@@H](CCCNC(=N)N)C(=O)N[C@H](C(=O)N[C@@H](CCCCN)C(=O)N[C@H](C(=O)N[C@@H](CO)C(=O)N1CCC[C@H]1C(=O)N[C@@H](CC(N)=O)C(=O)NCC(=O)N1C[C@H](O)C[C@H]1C(N)=O)[C@@H](C)CC)[C@@H](C)O)C(C)C)[C@@H](C)O [compound 113] (H-GCRFGTCTVQRLAHQIYQFTDKDKDNVAPRTKISPNG[Hyp]-NH2; disulfide 2-7; N-terminus assumed) | 0.022 | 14.700 |
| CC[C@H](C)[C@H](NC(=O)[C@H](CCC(N)=O)NC(=O)[C@H](Cc1c[nH]cn1)NC(=O)[C@H](C)NC(=O)[C@H](CC(C)C)NC(=O)[C@H](CCCNC(=N)N)NC(=O)[C@H](CCC(N)=O)NC(=O)[C@@H](NC(=O)[C@@H](NC(=O)[C@@H]1CSSC[C@H](NC(=O)CN)C(=O)N[C@@H](CCCNC(=N)N)C(=O)N[C@@H](Cc2ccccc2)C(=O)NCC(=O)N[C@@H]([C@@H](C)O)C(=O)N1)[C@@H](C)O)C(C)C)C(=O)N[C@@H](Cc1ccc(O)cc1)C(=O)N[C@@H](CCC(N)=O)C(=O)N[C@@H](Cc1ccccc1)C(=O)N[C@H](C(=O)N[C@@H](CC(=O)O)C(=O)N[C@@H](CCCCN)C(=O)N[C@@H](CC(=O)O)C(=O)N[C@@H](CCCCN)C(=O)N[C@@H](CC(=O)O)C(=O)N[C@@H](CC(N)=O)C(=O)N[C@H](C(=O)N[C@@H](C)C(=O)N1CCC[C@H]1C(=O)N[C@@H](CCCNC(=N)N)C(=O)N[C@@H](CO)C(=O)N[C@@H](CC(N)=O)C(=O)N[C@H](C(=O)N[C@@H](CO)C(=O)N1CCC[C@H]1C(=O)N[C@@H](CCC(N)=O)C(=O)NCC(=O)N1C[C@H](O)C[C@H]1C(N)=O)C(C)C)C(C)C)[C@@H](C)O [compound 145] (H-GCRFGTCTVQRLAHQIYQFTDKDKDNVAPRSNVSPQG[Hyp]-NH2; disulfide 2-7; N-terminus assumed) | 0.039 | 2.000 |
| CC(C)C[C@H](NC(=O)[C@H](CCCNC(N)=O)NC(=O)[C@H](CCC(N)=O)NC(=O)[C@@H](NC(=O)[C@@H](NC(=O)[C@@H]1CSSC[C@H](NC(=O)CN)C(=O)N[C@@H](CCCNC(=N)N)C(=O)N[C@@H](Cc2ccccc2)C(=O)NCC(=O)N[C@@H]([C@@H](C)O)C(=O)N1)[C@@H](C)O)C(C)C)C(=O)N[C@@H](C)C(=O)N[C@@H](Cc1c[nH]cn1)C(=O)N[C@@H](Cc1ccccc1)C(=O)N[C@@H](CC(C)C)C(=O)N[C@@H](Cc1ccc(O)cc1)C(=O)N[C@@H](CCC(N)=O)C(=O)N[C@@H](Cc1ccccc1)C(=O)N[C@H](C(=O)N[C@@H](CC(=O)O)C(=O)N[C@@H](CCCCN)C(=O)N[C@@H](CC(=O)O)C(=O)N[C@@H](CCCCN)C(=O)N[C@@H](CC(=O)O)C(=O)N[C@@H](CC(N)=O)C(=O)N[C@H](C(=O)N[C@@H](C)C(=O)N1CCC[C@H]1C(=O)N[C@@H](CCCNC(=N)N)C(=O)N[C@H](C(=O)N[C@@H](CCCCN)C(=O)N[C@H](C(=O)NCC(=O)N[C@@H](CO)C(=O)N[C@@H](CC(N)=O)C(=O)NCC(=O)N[C@@H](Cc1ccc(O)cc1)C(N)=O)C(C)C)[C@@H](C)O)C(C)C)[C@@H](C)O [compound 279] (H-GCRFGTCTVQ[Cit]LAHFLYQFTDKDKDNVAPRTKVGSNGY-NH2; disulfide 2-7; N-terminus assumed) | 0.013 | 13.450 |
